The values that follow come from patent US20190046490A1, “METHODS OF TREATING LACTOSE INTOLERANCE” (Nogra Pharma Limited, priority 2016, published 2019).

The subject of data set [1] is Caco-2 cells. Kind of data set: Glucose uptake assay (2-DG6P) in Caco-2 cells. Format: cell-based, human. The note with it: 1 mM, 24 h. The method, then:
Glucose uptake was evaluated by using the glucose uptake colorimetric assay kit (Sigma-Aldrich) according to the manufacturer's instructions. Briefly, Caco-2 cells were seeded into a 96-well plate at a density of 30,000 cells per well. Cells were serum deprived for 16 hours prior to stimulation in order to synchronize the cells. Cells were treated with GED (1 mM) or pioglitazone (1 μM) for 24 h. Cells were then washed 3 times with PBS and were glucose-starved by incubating with 100 μl of KRPH buffer (Krebs-Ringer-Phosphate-HEPES (KRPH) Buffer—20 mM HEPES, 5 mM KH2PO4, 1 mM MgSO4, 1 mM CaCl2, 136 mM NaCl, and 4.7 mM KCl, pH 7.4) containing 2% BSA for 40 minutes. 10 μl of 2-deoxyglucose (2-DG; 10 mM) was then added and incubation was continued for 20 minutes. 2-DG is taken up by the cells and phosphorylated by hexokinase to 2-DG6P, which cannot be further metabolized and accumulates in cells. Following incubation, cells were washed 3 times with PBS and lysed with 80 μl of the extraction buffer provided. The amount of 2-DG6P (which is directly proportional to glucose uptake by the cells) was determined by a colorimetric detection assay according to the manufacturer's protocol.

Data set [2] concerns DR2 response element of the human LCT gene promoter. Kind of data set: Luciferase reporter gene assay with LCT promoter DR2 fragment in Caco-2 cells. Format: cell-based. The method, then:
A 321 bp genomic fragment (corresponding to the first 321 bp upstream to the transcription start site of the human lactase gene) was cloned in the pGL4-Luc reporter vector using XhoI and Hind III restriction sites introduced in “Hs-Prom-0.3 Kb sens” and “Hs-Prom-0.3 Kb anti-sens” oligonucleotides respectively. This construct and the empty vector control were transiently transfected in Caco-2 cells using Nucleofector™ Technology. Six hours post-transfection, cells were treated with PPARγ modulator for 12 hours. Luciferase activity was measured using the luciferase assay kit (Promega) in a Wallac Victor2 ™ 1420 multilabel counter (Perkin Elmer).
(In general: A reporter such as luciferase makes a cellular process visible.)

Data set [3] concerns LCT. Kind of data set: LCT mRNA expression and activity in proximal small intestine of mice after oral GED. Format: in vivo. The following applies: weaned C57BL/6 mice, 30 mg/kg daily by gavage for 7 days. How it is done: (§1) Expression of genes of interest was quantified by quantitative PCR (qPCR) of corresponding reverse transcribed mRNA. One μg of total RNA was reverse-transcribed into cDNA using the High Capacity cDNA Archive kit (Applied Biosystems). Amplification was performed using an ABI PRISM 7000 sequence detection system (Applied Biosystem) using Power SYBR® Green PCR master Mix (Applied Biosystem). Primer pairs for each human transcript were chosen with qPrimer depot software (at primerdepot.nci.nih.gov.). Quantification of qPCR signals was performed using ΔCt relative quantification method using GAPDH as a reference gene for human and rat samples and β-Actin for mouse samples. Values were represented in terms of relative quantity of mRNA level variation or fold increase compared to control conditions.
(§2) Lactase activity was evaluated by using a glucose oxidase method (Glucose Assay Kit, Sigma). […] For Caco-2 cells, lactase activity was determined directly from the cell monolayer. […] The reaction was stopped with 100 μl of H2SO4 and read by spectrophotometry at 450 nm. When lactase activity was determined from intestinal sample, tissue samples were first dounce-homogenized in 0.9% NaCl on crushed ice. […] For each experiment, the background attributed to the remaining glucose in the samples was measured by incubating cells or cell extracts in lactose-free buffer. […]

Data set [4] concerns LCT. Kind of data set: LCT mRNA expression and activity in proximal small intestine of rats after oral GED. In kind it is in vivo. The note with it: weaned Sprague-Dawley rats, 30 mg/kg daily by gavage for 7 days. The method, then:
as §1, §2

Consider `COC(Cc1ccc(N)cc1)C(=O)O` (stereo not shown) [GED, 3-(4′-aminophenyl)2-methoxypropionic acid], for which, in data set [1], the “glucose uptake of Caco-2 cells” value is recorded as “did not significantly alter”. Further, in data set [2] (Caco-2 cells transfected with pGL4Luc Prom LCT construct), the “luciferase activity compared to untreated cells” value is “significantly increased”. Moreover, in data set [2] (Caco-2 cells with luciferase construct lacking the DR2 sequence (pGL4Luc)), the luciferase activity entry is “No significant change”. For the same compound, in data set [3], the “LCT activity in the proximal part of the small intestine” value is “significantly increased” and the “LCT expression in the proximal part of the small intestine” value is given as “significantly increased”. In addition, in data set [4], the “LCT activity in the proximal part of the small intestine” value is listed as “significantly increased” and the “LCT expression in the proximal part of the small intestine” value was “significantly increased”.
